According to ChEMBL document CHEMBL5214921, “Bacterial type I signal peptidase inhibitors - Optimized hits from nature” (Eur J Med Chem, 2022):
pIC50: −log10 of the molar value. In brackets after ≈: the same amount, converted by molar mass. *1 amine or outer side, *2 acyl side, *3 side chain or, on linkers, in order; H or OH if unused. Where a SMILES comes first, the peptide text is derived from it. [ ]: non-standard residue; d: D form. The star is where a group is joined. X1 = C[C@H](N[*:1])C(=O)C(=O)[*:2]; NMeT = CN[C@H](C(=O)O)[C@@H](C)O; Decanoyl = CCCCCCCCCC(=O)*; βAla = NCCC(=O)O

Experiments:
[1] = Inhibition of LepB (unknown origin); design: species or system Bacteria
Staphylococcus aureus [2] = test: Antibacterial activity against methicillin-resistant Staphylococcus aureus assessed as bacterial growth inhibition; format: functional
Staphylococcus aureus [3] = test: Antibacterial activity against methicillin-resistant Staphylococcus aureus assessed as bacterial growth inhibition measured after 24 hrs; format: functional
[4] = system: Staphylococcus epidermidis; test: Antibacterial activity against Staphylococcus epidermidis assessed as bacterial cell growth inhibition by CLSI based broth microdilution method; format: functional
Staphylococcus aureus [5] = test: Antibacterial activity against Staphylococcus aureus NCTC 8325 assessed as bacterial cell growth inhibition by CLSI based broth microdilution method; format: functional
Pseudomonas aeruginosa [6] = test: Antibacterial activity against wild type Pseudomonas aeruginosa PA14 assessed as inhibition of bacterial growth […] by CLSI based protocol; format: functional
[7] = system: Staphylococcus epidermidis; test: Antibacterial activity against Staphylococcus epidermidis assessed as bacterial cell growth inhibition; format: functional
Staphylococcus aureus [8] = test: Antibacterial activity against Staphylococcus aureus assessed as bacterial cell growth inhibition; format: functional
Pseudomonas aeruginosa [9] = test: Antibacterial activity against wild type Pseudomonas aeruginosa PA14 assessed as inhibition of bacterial growth; format: functional
Escherichia coli [10] = test: Antibacterial activity against Escherichia coli ATCC 25922 assessed as bacterial cell growth inhibition; format: functional
[11] = Inhibition of Escherichia coli Signal peptidase I using decanoyl-k(DABCYL)-TPTAKAASKKD-D(EDANS)-NH2 as substrate by fluorescence-based analysis
[12] = Inhibition of Streptococcus pneumoniae Signal peptidase I using decanoyl-k(DABCYL)-TPTAKAASKKD-D(EDANS)-NH2 as substrate by fluorescence-based analysis
[13] = Inhibition of Staphylococcus aureus SpsB incubated for 15 mins by fluorescence based analysis
Staphylococcus aureus [14] = test: Antibacterial activity against Staphylococcus aureus 8325 assessed as bacterial cell growth inhibition measured after 18 hrs by CLSI based broth microdilution method; format: functional
[15] = system: Staphylococcus epidermidis; test: Antibacterial activity against Staphylococcus epidermidis ATCC 35984 assessed as bacterial cell growth inhibition measured after 18 hrs by CLSI based broth microdilution method; format: functional
Escherichia coli [16] = test: Antibacterial activity against Escherichia coli assessed as bacterial cell growth inhibition; format: functional
Escherichia coli [17] = test: Antibacterial activity against Escherichia coli MG1655 assessed as bacterial cell growth inhibition measured after 18 hrs by CLSI based broth microdilution method; format: functional

Q: With `C=CCOC(=O)C1=CS[C@H]2[C@@H]([C@@H](C)O)C(=O)N12` as the compound, how does the pIC50 [1] read?
A: The pIC50 was 6.74.

Q: With `C=CCOC(=O)C1=CS[C@H]2[C@@H]([C@@H](C)OC(C)=O)C(=O)N12` as the compound, how does the pIC50 [1] read?
A: Its pIC50 is 7.15.

Q: Which MIC (Staphylococcus aureus [2]) does the source give for `O=C(Nc1ccc2c(c1)OC(F)(F)O2)Nc1ccc(Cl)c(C(F)(F)F)c1` here?
A: The MIC was 0.12 µg/mL (≈ 0.304 µM).

Q: And the MIC (Staphylococcus aureus [3])?
A: The MIC was 0.3 µM (≈ 0.118 µg/mL).

Q: For `C[C@@H]1NC(=O)[C@@H](N(C)C(=O)CNC(=O)[C@@H](C)NC(=O)[C@@H](CO)NC(=O)CCCCCCCCc2ccc(-c3ccccc3)cc2)c2ccc(O)c(c2)-c2cc(ccc2O)C[C@@H](C(=O)O)NC1=O`, which MIC [4] is on record?
A: The MIC was 16 µg/mL (≈ 17.4 µM).

Q: What about the MIC (Staphylococcus aureus [5]) of the same compound?
A: Its MIC is 16 µg/mL (≈ 17.4 µM).

Q: What does the source list for `Cc1nc(-c2ccc(C(C)(C)C)cc2)ncc1C(=O)N[C@@H](CCN)C(=O)N(C)[C@@H]1C(=O)N[C@@H](C)C(=O)N[C@H](C(=O)NCC#N)Cc2cc(OCCN)cc(c2)-c2cc1ccc2OCCN`?
A: MIC (Pseudomonas aeruginosa [6]): 2 µM (≈ 1.78 µg/mL); MIC [7]: 0.25 µg/mL (≈ 0.281 µM); MIC (Staphylococcus aureus [8]): 0.06 µg/mL (≈ 0.0674 µM); MIC (Pseudomonas aeruginosa [9]): 1.78 µg/mL (≈ 2 µM); MIC (Escherichia coli [10]): 0.125 µg/mL (≈ 0.14 µM)

Q: With `CCCC(C)/C=C(/C)C(=O)OC(CCCCCCC/C=C/C(=O)NCCC(=O)N[C@@H](CS(=O)(=O)O)C(=O)N(C)[C@@H]1C(=O)N[C@@H](C)C(=O)N[C@H](C(=O)O)Cc2ccc(O)c(c2)-c2cc1cc(O)c2O[C@@H]1O[C@@H](C)[C@H](OS(=O)(=O)O)[C@@H](OS(=O)(=O)O)[C@H]1O)CCC(C)C` (stereo partly drawn) as the compound, how does the pIC50 [11] read?
A: Its pIC50 is 6.96.

Q: What about the pIC50 [12] of the same compound?
A: The pIC50 was 5.62.

Q: What does the source list for `Cc1nc(-c2ccc(C(C)(C)C)cc2)nc(C)c1C(=O)N[C@@H](CCN)C(=O)N(C)[C@@H]1C(=O)N[C@@H](C)C(=O)N[C@H](C(=O)NCC#N)Cc2cc(OCCN)cc(c2)-c2cc1ccc2OCCN`?
A: MIC (Pseudomonas aeruginosa [6]): 2 µM (≈ 1.81 µg/mL); MIC (Pseudomonas aeruginosa [9]): 1.81 µg/mL (≈ 2 µM)

Q: With `CCCCCCCCCC(=O)N[C@@H](CC(C)C)C(=O)N[C@H](C(=O)N1CCC[C@H]1C(=O)N(C)[C@H](C(=O)N[C@@H](C)C(=O)N[C@@H](CC(N)=O)C(=O)N[C@@H](C)C(=O)C(=O)NCCC(=O)N[C@@H](CC(=O)O)C(=O)O)[C@@H](C)O)[C@@H](C)O` (Decanoyl-LTP[NMeT]AN[X1][βAla]D-OH) as the compound, how does the pIC50 [13] read?
A: The pIC50 was 7.00.

Q: Which results are given for `CC(C)CCCCCCCCC(=O)N(C)[C@H](CO)C(=O)N[C@H](C)C(=O)NCC(=O)N(C)[C@@H]1C(=O)N[C@@H](C)C(=O)N[C@H](C(=O)O)Cc2ccc(O)c(c2)-c2cc1ccc2O` [ARYLOMYCIN A2]?
A: MIC (Staphylococcus aureus [14]): > 128 µM; MIC [7]: 0.81 µg/mL (≈ 0.982 µM); MIC [15]: 1 µM (≈ 0.825 µg/mL); MIC (Staphylococcus aureus [8]): 104 µg/mL (≈ 126 µM); MIC (Escherichia coli [16]): 104 µg/mL (≈ 126 µM); MIC (Escherichia coli [17]): > 128 µM

Q: For `CCCCCCCCCCCCCCCC(=O)N(C)[C@H](CO)C(=O)N[C@H](C)C(=O)NCC(=O)N(C)[C@@H]1C(=O)N[C@@H](C)C(=O)N[C@H](C(=O)O)Cc2ccc(O)c(c2)-c2cc1ccc2O` [ARYLOMYCIN C16], which MIC [7] is on record?
A: Its MIC is 0.43 µg/mL (≈ 0.488 µM).

Q: And the MIC [15]?
A: The MIC was 0.5 µM (≈ 0.441 µg/mL).

Q: What about the MIC (Escherichia coli [16]) of the same compound?
A: The MIC was 13.9 µg/mL (≈ 15.7 µM).

Q: What about the MIC (Escherichia coli [17]) of the same compound?
A: The MIC was 16 µM (≈ 14.1 µg/mL).

Q: Which results are given for `CNC(=O)c1cc(Oc2ccc(NC(=O)Nc3ccc(Cl)c(C(F)(F)F)c3)cc2)ccn1` [SORAFENIB]?
A: MIC (Staphylococcus aureus [2]): 1.39 µg/mL (≈ 2.99 µM); MIC (Staphylococcus aureus [3]): 3 µM (≈ 1.39 µg/mL)
